Several values for one entry are separate records, joined by “and”; a condition that tells them apart may be missing. Identical values can stand only once. Toxic doses and inconclusive results are not listed.

The test system of this test is L1210 leukemia ip in BDF1 mice, survival T/C. Nature of the test: NCI In Vivo Anticancer Drug Screen. Data for tumor model L1210 Leukemia (intraperitoneal) in B6D2F1 (BDF1) mice. The note with it: endpoint: mean survival time, higher = longer survival. The gist of the method: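 Value reflects the ratio of survival in compound-treated mice to survival in vehicle-treated controls, with both groups carrying the same transplanted tumor.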

Setting [1] is: dose: 100.0 mg/kg/injection, schedule: Q01DX009 (ip), vehicle: Klucel (hydroxypropylcellulose) (HPC).
The mark [2] stands for this setting: dose: 200.0 mg/kg/injection, schedule: Q01DX009 (ip), vehicle: Klucel (hydroxypropylcellulose) (HPC).
Where [3] appears, read: dose: 400.0 mg/kg/injection, schedule: Q01DX009 (ip), vehicle: Klucel (hydroxypropylcellulose) (HPC).
The mark [4] stands for this setting: dose: 100.0 mg/kg/injection, schedule: Q04DX003 (ip), vehicle: Klucel (hydroxypropylcellulose) (HPC).
Where [5] appears, read: dose: 200.0 mg/kg/injection, schedule: Q04DX003 (ip), vehicle: Klucel (hydroxypropylcellulose) (HPC).
The mark [6] stands for this setting: dose: 400.0 mg/kg/injection, schedule: Q04DX003 (ip), vehicle: Klucel (hydroxypropylcellulose) (HPC).
Setting [7] is: dose: 100.0 mg/kg/injection, schedule: Q01DX001 (ip), vehicle: saline.
[8] abbreviates: dose: 400.0 mg/kg/injection, schedule: Q01DX001 (ip), vehicle: saline.
The mark [9] stands for this setting: dose: 100.0 mg/kg/injection, schedule: Q04DX002 (ip), vehicle: Klucel (hydroxypropylcellulose) (HPC).
[10] abbreviates: dose: 200.0 mg/kg/injection, schedule: Q04DX002 (ip), vehicle: Klucel (hydroxypropylcellulose) (HPC).
Where [11] appears, read: dose: 25.0 mg/kg/injection, schedule: Q01DX009 (ip), vehicle: Klucel (hydroxypropylcellulose) (HPC).

With `Clc1ncnc2c1nnn2/N=C/c1ccccc1`, the T/C (dose: 15.0 mg/kg/injection, schedule: Q01DX Z (ip), vehicle: carboxymethylcellulose (CMC)) is 95 % of control and the T/C (dose: 20.0 mg/kg/injection, schedule: Q01DX Z (ip), vehicle: carboxymethylcellulose (CMC)) was 91 % of control.
With `COc1ccc(CN2CC(C)N(N)C(C)C2)cc1` (configuration not stated), where the note is “dose: 100.0 mg/kg/injection, schedule: Q01DX005 (ip), vehicle: saline”, the T/C is 98 % of control.
Turning to `CC(C)N1CCc2cc3c(cc2C1)OCO3`, the T/C is 101 % of control (dose: 5.0 mg/kg/injection, schedule: Q01DX001 (ip), vehicle: saline); 101 % of control (dose: 10.0 mg/kg/injection, schedule: Q01DX001 (ip), vehicle: saline); 110 % of control (dose: 20.0 mg/kg/injection, schedule: Q01DX001 (ip), vehicle: saline); 104 % of control (dose: 40.0 mg/kg/injection, schedule: Q01DX001 (ip), vehicle: saline); 101 % of control (dose: 80.0 mg/kg/injection, schedule: Q01DX001 (ip), vehicle: saline).
As for `CSc1cccc(N2C(=O)CC(Sc3ccccc3N)C2=O)c1` (configuration not stated), the T/C runs as follows: under setting [1], 90 % of control; under setting [2], 95 % of control; under setting [3], 98 % of control.
In the case of `O=[N+]([O-])c1ccc(Cl)c2ncccc12`, the T/C under setting [4] was 102 % of control, the T/C under setting [5] is 98 % of control and the T/C under setting [6] was 102 % of control.
`CC(=O)CC(=O)Nc1cccc(O)c1`: the T/C is 91 % of control under setting [2] and 100 % of control under setting [3].
As for `C/C(=N\N=C(/C)c1ccc(N)cc1)c1ccc(N)cc1`, the T/C was 90 % of control under setting [7] and 96 % of control under setting [8].
With `Cc1cc(-c2ccc(N3C(=O)C=CC3=O)c(C)c2)ccc1N1C(=O)C=CC1=O`, the T/C runs as follows: under setting [4], 105 % of control; under setting [5], 100 % of control.
For the compound `O/N=C/c1ccc(Cc2ccccc2)o1`, the T/C runs as follows: (dose: 75.0 mg/kg/injection, schedule: Q01DX001 (ip), vehicle: carboxymethylcellulose (CMC)) 97 % of control; (dose: 150.0 mg/kg/injection, schedule: Q01DX001 (ip), vehicle: carboxymethylcellulose (CMC)) 100 % of control; (dose: 300.0 mg/kg/injection, schedule: Q01DX001 (ip), vehicle: carboxymethylcellulose (CMC)) 96 % of control.
With `CC(C)NC(=O)N(c1ccccc1)C(C)C`, the T/C was 98 % of control (dose: 100.0 mg/kg/injection, schedule: Q04DX003 (ip), vehicle: saline with Tween-80); 89 % of control (dose: 200.0 mg/kg/injection, schedule: Q04DX003 (ip), vehicle: saline with Tween-80); 89 % of control (dose: 400.0 mg/kg/injection, schedule: Q04DX003 (ip), vehicle: saline with Tween-80).
Take `COC1=C(NCCc2ccc(OC)c(OC)c2)C(=O)C(OC)=C(NCCc2ccc(OC)c(OC)c2)C1=O`: the T/C runs as follows: under setting [7], 109 % of control; (dose: 200.0 mg/kg/injection, schedule: Q01DX001 (ip), vehicle: saline) 98 % of control; under setting [8], 96 % of control.
Turning to `O=C(O)Cc1ccc(Cl)c2ccccc12`, the T/C under setting [9] is 101 % of control; the T/C under setting [10] was 104 % of control; the T/C (dose: 400.0 mg/kg/injection, schedule: Q04DX002 (ip), vehicle: Klucel (hydroxypropylcellulose) (HPC)) was 107 % of control.
For the compound `O=C1OC(c2ccccc2)CC1NCc1ccccc1` (configuration not stated), the T/C is, setting by setting: (dose: 100.0 mg/kg/injection, schedule: Q01DX001 (ip), vehicle: Klucel (hydroxypropylcellulose) (HPC)) 98 % of control; (dose: 200.0 mg/kg/injection, schedule: Q01DX001 (ip), vehicle: Klucel (hydroxypropylcellulose) (HPC)) 101 % of control; (dose: 400.0 mg/kg/injection, schedule: Q01DX001 (ip), vehicle: Klucel (hydroxypropylcellulose) (HPC)) 96 % of control.
Take `Cn1cc([N+](=O)[O-])c(=O)n(C)c1=O`: the T/C reads like this: (dose: 50.0 mg/kg/injection, schedule: Q01DX001 (ip), vehicle: carboxymethylcellulose (CMC)) 93 % of control; (dose: 100.0 mg/kg/injection, schedule: Q01DX001 (ip), vehicle: carboxymethylcellulose (CMC)) 98 % of control; (dose: 200.0 mg/kg/injection, schedule: Q01DX001 (ip), vehicle: carboxymethylcellulose (CMC)) 102 % of control; (dose: 400.0 mg/kg/injection, schedule: Q01DX001 (ip), vehicle: carboxymethylcellulose (CMC)) 104 % of control.
Consider `Cc1cc(P(=O)(O)O)ccc1[N+](=O)[O-]`, for which the T/C (dose: 75.0 mg/kg/injection, schedule: Q01DX001 (ip), vehicle: saline) was 95 % of control; the T/C (dose: 150.0 mg/kg/injection, schedule: Q01DX001 (ip), vehicle: saline) was 88 % of control; the T/C (dose: 300.0 mg/kg/injection, schedule: Q01DX001 (ip), vehicle: saline) is 96 % of control.
Consider `O=C(CC(C(=O)c1ccccc1)N1CC1)c1ccccc1` (configuration not stated), for which the T/C was 91 % of control (dose: 50.0 mg/kg/injection, schedule: Q01DX009 (ip), vehicle: saline sonified); 96 % of control (dose: 50.0 mg/kg/injection, schedule: Q04DX003 (ip), vehicle: saline sonified); 94 % of control (dose: 100.0 mg/kg/injection, schedule: Q01DX009 (ip), vehicle: saline sonified); 92 % of control (dose: 100.0 mg/kg/injection, schedule: Q04DX003 (ip), vehicle: saline sonified); 97 % of control (dose: 200.0 mg/kg/injection, schedule: Q04DX003 (ip), vehicle: saline sonified).
In the case of `Cc1cc(Cl)ccc1NC(=O)Nc1cccc(F)c1`, the T/C is 88 % of control under setting [1], 90 % of control under setting [2] and 86 % of control under setting [3].
Regarding `C[N+]1(CCCl)CCOCC1`, the T/C is 97 % of control (dose: 20.0 mg/kg/injection, schedule: Q01DX009 (ip), vehicle: Klucel (hydroxypropylcellulose) (HPC)) and 102 % of control (dose: 40.0 mg/kg/injection, schedule: Q01DX009 (ip), vehicle: Klucel (hydroxypropylcellulose) (HPC)).
For `CCOC(=O)Nc1cc2c(c(N)n1)N=C(CN(C)c1ccccc1)CN2`, the T/C by setting is: (dose: 5.0 mg/kg/injection, schedule: Q01DX009 (ip), vehicle: Klucel (hydroxypropylcellulose) (HPC)) 101 % of control; (dose: 6.25 mg/kg/injection, schedule: Q01DX009 (ip), vehicle: Klucel (hydroxypropylcellulose) (HPC)) 116 % of control; (dose: 12.5 mg/kg/injection, schedule: Q01DX009 (ip), vehicle: Klucel (hydroxypropylcellulose) (HPC)) 118 % of control; (dose: 15.0 mg/kg/injection, schedule: Q01DX009 (ip), vehicle: Klucel (hydroxypropylcellulose) (HPC)) 98 % of control; under setting [11], 120 % of control; (dose: 50.0 mg/kg/injection, schedule: Q04DX002 (ip), vehicle: Klucel (hydroxypropylcellulose) (HPC)) 196 % of control. Moreover, the T/C was 183 % of control under setting [9] and 96 % of control under setting [10].
Turning to `Cc1cc(=O)n2c3c(c4c(cc13)c(CBr)cc(=O)n4C)OC2`, the T/C reads like this: under setting [11], 86 % of control; (dose: 50.0 mg/kg/injection, schedule: Q01DX009 (ip), vehicle: Klucel (hydroxypropylcellulose) (HPC)) 102 % of control; (dose: 75.0 mg/kg/injection, schedule: Q01DX009 (ip), vehicle: Klucel (hydroxypropylcellulose) (HPC)) 94 % of control and 87 % of control; under setting [4], 103 % of control; under setting [5], 93 % of control; under setting [6], 104 % of control.
Regarding `C/C=C/C(=O)OCCC[N+](C)(C)C`, the T/C is 95 % of control (dose: 0.78 mg/kg/injection, schedule: Q01DX009 (ip), vehicle: saline); 97 % of control (dose: 1.56 mg/kg/injection, schedule: Q01DX009 (ip), vehicle: saline); 100 % of control (dose: 3.12 mg/kg/injection, schedule: Q01DX009 (ip), vehicle: saline); 111 % of control (dose: 6.25 mg/kg/injection, schedule: Q04DX003 (ip), vehicle: saline); 88 % of control (dose: 12.5 mg/kg/injection, schedule: Q04DX003 (ip), vehicle: saline); 103 % of control (dose: 25.0 mg/kg/injection, schedule: Q04DX003 (ip), vehicle: saline).

The values above are taken from PubChem BioAssay AID248 (DTP/NCI, 2004).
